Data reported in the NIST ThermoML archive (doi:10.1016/j.fluid.2005.05.029).

Assay: excess molar enthalpy (molar enthalpy of mixing); xn = mol fraction of the nth substance listed
Conditions: Liquid, Flow calorimetry

CCOC(=O)OCC [diethyl carbonate] + O=C=O
excess molar enthalpy [kcal/mol]
Conditions	298.15 K	303.15 K	308.15 K
5000 kPa, x2 = 0.1103	–	-0.299	-0.335
5000 kPa, x2 = 0.2074	-0.57	-0.577	-0.627
5000 kPa, x2 = 0.2936	-0.816	-0.815	-0.833
5000 kPa, x2 = 0.3706	-1.03	-1.06	-1.06
5000 kPa, x2 = 0.4398	-1.22	-1.24	-1.24
5000 kPa, x2 = 0.5023	-1.4	-1.4	-1.41
5000 kPa, x2 = 0.5591	-1.53	-1.55	–
5000 kPa, x2 = 0.6109	-1.65	-1.67	-1.68
5000 kPa, x2 = 0.6583	-1.78	-1.79	-1.8
5000 kPa, x2 = 0.7019	-1.89	-1.89	-1.9
5000 kPa, x2 = 0.7184	–	–	-1.94
5000 kPa, x2 = 0.7264	–	–	-1.95
5000 kPa, x2 = 0.7343	–	–	-1.85
5000 kPa, x2 = 0.7421	-1.97	-1.98	-1.81
5000 kPa, x2 = 0.7794	-2.04	-2.03	-1.54
5000 kPa, x2 = 0.7935	–	-2.05	–
5000 kPa, x2 = 0.8004	–	-1.98	–
5000 kPa, x2 = 0.8139	-2.1	-1.86	–
5000 kPa, x2 = 0.846	-2.14	-1.51	-1.07
5000 kPa, x2 = 0.8522	-2.07	–	–
5000 kPa, x2 = 0.876	-1.76	-1.21	–
5000 kPa, x2 = 0.904	-1.36	-0.922	-0.65
5000 kPa, x2 = 0.9303	-0.998	-0.722	–
5000 kPa, x2 = 0.9549	-0.638	-0.439	-0.297
5000 kPa, x2 = 0.9781	-0.308	-0.208	–
5000 kPa, x2 = 0.9957	–	–	-0.00454
5500 kPa, x2 = 0.111	-0.3	-0.304	-0.305
5500 kPa, x2 = 0.2086	-0.571	-0.574	-0.579
5500 kPa, x2 = 0.2951	-0.804	-0.802	–
5500 kPa, x2 = 0.3723	-0.995	-1	-1.02
5500 kPa, x2 = 0.4416	-1.16	-1.17	–
5500 kPa, x2 = 0.5041	-1.32	-1.32	-1.37
5500 kPa, x2 = 0.5609	-1.44	-1.46	–
5500 kPa, x2 = 0.6126	–	-1.6	-1.64
5500 kPa, x2 = 0.66	-1.68	-1.71	-1.75
5500 kPa, x2 = 0.7035	-1.75	-1.79	-1.84
5500 kPa, x2 = 0.7199	–	–	-1.87
5500 kPa, x2 = 0.7436	-1.84	-1.86	-1.92
5500 kPa, x2 = 0.7587	–	–	-1.95
5500 kPa, x2 = 0.7661	–	–	-1.95
5500 kPa, x2 = 0.7734	–	–	-1.97
5500 kPa, x2 = 0.7806	-1.91	-1.94	-1.95
5500 kPa, x2 = 0.7947	–	–	-1.82
5500 kPa, x2 = 0.815	-1.96	-2.01	-1.64
5500 kPa, x2 = 0.8281	–	-2.03	–
5500 kPa, x2 = 0.8345	–	-2.03	–
5500 kPa, x2 = 0.8408	–	-2.03	–
5500 kPa, x2 = 0.847	-2.01	-1.93	-1.36
5500 kPa, x2 = 0.8768	-2.04	-1.52	–
5500 kPa, x2 = 0.9047	-2.07	-1.21	-0.841
5500 kPa, x2 = 0.91	-2.07	–	–
5500 kPa, x2 = 0.9153	-2.04	–	–
5500 kPa, x2 = 0.9205	-1.95	–	–
5500 kPa, x2 = 0.9308	-1.69	-0.875	–
5500 kPa, x2 = 0.9553	-1.08	-0.564	-0.396
5500 kPa, x2 = 0.9783	-0.498	-0.265	–
6000 kPa, x2 = 0.2097	–	–	-0.562
6000 kPa, x2 = 0.2965	–	–	-0.778
6000 kPa, x2 = 0.3739	–	–	-0.994
6000 kPa, x2 = 0.4433	–	–	-1.17
6000 kPa, x2 = 0.5058	–	–	-1.32
6000 kPa, x2 = 0.5626	–	–	-1.45
6000 kPa, x2 = 0.6142	–	–	-1.57
6000 kPa, x2 = 0.6615	–	–	-1.66
6000 kPa, x2 = 0.7049	–	–	-1.76
6000 kPa, x2 = 0.7448	–	–	-1.83
6000 kPa, x2 = 0.7818	–	–	-1.9
6000 kPa, x2 = 0.7958	–	–	-1.92
6000 kPa, x2 = 0.816	–	–	-1.94
6000 kPa, x2 = 0.829	–	–	-1.95
6000 kPa, x2 = 0.8354	–	–	-1.91
6000 kPa, x2 = 0.8479	–	–	-1.76
6000 kPa, x2 = 0.9052	–	–	-1.09
6000 kPa, x2 = 0.9555	–	–	-0.501
6500 kPa, x2 = 0.1123	–	–	-0.281
6500 kPa, x2 = 0.2108	–	–	-0.536
6500 kPa, x2 = 0.2978	–	–	-0.751
6500 kPa, x2 = 0.3753	–	–	-0.972
6500 kPa, x2 = 0.4448	–	–	-1.1
6500 kPa, x2 = 0.5074	–	–	-1.25
6500 kPa, x2 = 0.5641	–	–	-1.37
6500 kPa, x2 = 0.6157	–	–	-1.47
6500 kPa, x2 = 0.6629	–	–	-1.58
6500 kPa, x2 = 0.7062	–	–	-1.67
6500 kPa, x2 = 0.746	–	–	-1.73
6500 kPa, x2 = 0.7828	–	–	-1.76
6500 kPa, x2 = 0.817	–	–	-1.8
6500 kPa, x2 = 0.8487	–	–	-1.83
6500 kPa, x2 = 0.8782	–	–	-1.82
6500 kPa, x2 = 0.895	–	–	-1.7
6500 kPa, x2 = 0.9058	–	–	-1.56
6500 kPa, x2 = 0.9215	–	–	-1.27
6500 kPa, x2 = 0.9316	–	–	-1.13
6500 kPa, x2 = 0.9415	–	–	-0.986
6500 kPa, x2 = 0.9558	–	–	-0.69
6500 kPa, x2 = 0.9786	–	–	-0.329
6500 kPa, x2 = 0.9916	–	–	-0.111
